{
  "source": "patent US20240209028A1",
  "about": "“CNP COMPOUNDS” (priority 2022, published 2024)",
  "note": "Starred links: 1 amine or outer side, 2 acyl side, 3 side chain; linkers in the order of their positions; H or OH if unused. Positions of bridges follow the written chain, without caps; N, C: chain ends. Residues, ends and D or L forms follow the SMILES beside them. *: point of attachment. C18 diacid = O=C(O)CCCCCCCCCCCCCCCCC(=O)*; γGlu = O=C(O)[C@H](CCC(=O)[*:2])N[*:1]; AEEA = NCCOCCOCC(=O)O",
  "data": [
    {"assay": "Solubility of CNP compounds at pH 4.0 and pH 6.5", "type": "physicochemical", "details": "8 mM sodium phosphate, 23 mg/mL glycerol, pH 6.5, room temperature; read-out: Solubility at pH 6.5", "protocol": "In order to assess the suitability of CNP compounds for a soluble liquid formulation, the solubility of CNP compounds in pharmaceutically relevant buffers were measured. Solubility at two different pH-levels (pH 4.0 and pH 6.5) was examined as pH is expected to affect solubility.\nPreparation of pH 4.0 samples: The pH 4.0 samples of the CNP compounds were prepared by mixing freeze dried peptide with a pH 4.0 5 mM sodium acetate, 250 mM glycerol buffer at room temperature to a nominal concentration of at least 4000-5000 nmol/mL. The pH of the samples was measured and adjusted to pH 4.0 and the samples were allowed to equilibrate at room temperature until next day if not fully dissolved.\nPreparation of pH 6.5 samples: The pH 6.5 samples of the CNP compounds were prepared by dissolving the freeze dried peptide in water. While stirring, a part of the peptide solution was transferred to a buffer consisting of 41 mM sodium phosphate and 118 mg/mL glycerol, pH 7.5-8.0, followed by addition of diluted sodium hydroxide followed by another part of the peptide solution and further addition of diluted sodium hydroxide. This procedure was repeated until all of the peptide solution had been added where a nominal concentration of at least 4000-5000 nmol/mL had been reached and the buffer composition was 8 mM sodium phosphate, 23 mg/mL glycerol. The pH of the samples were measured and adjusted to pH 6.5 and the samples were allowed to equilibrate at room temperature until next day if not fully dissolved.\nProcedure: Samples at pH 4.0 were prepared as described above and the compound concentration in the supernatant was determined using CAD (Method F, CAD02).\nSamples at pH 6.5 were prepared as described above and peptide concentration in the supernatant was determined by CAD (Method F, CAD02).", "units": {"solubility": "µM"}, "values": [
      {"smiles": "CC[C@H](C)[C@@H]1NC(=O)[C@H](CCCNC(=N)N)NC(=O)[C@H](CC(=O)O)NC(=O)[C@H](CC(C)C)NC(=O)[C@@H]2CCCN2C(=O)[C@H](CC(C)C)NC(=O)CNC(=O)[C@H](Cc2ccccc2)NC(=O)[C@@H](NC(=O)CNC(=O)[C@H](CO)NC(=O)[C@H](CO)NC(=O)[C@@H](NC(=O)CNC(=O)[C@@H](NC(=O)[C@H](CCCCN)NC(=O)[C@H](CCC(N)=O)NC(=O)[C@H](C)NC(=O)CNC(=O)[C@H](Cc2c[nH]cn2)NC(=O)[C@H](Cc2ccc(O)cc2)NC(=O)[C@H](CCCCN)NC(=O)[C@H](CCCNC(=N)N)NC(=O)[C@H](C)NC(=O)COCCOCCNC(=O)COCCOCCNC(=O)CC[C@H](NC(=O)CC[C@H](NC(=O)CCCCCCCCCCCCCCCCC(=O)O)C(=O)O)C(=O)O)[C@@H](C)O)C(C)C)CSSC[C@@H](C(=O)O)NC(=O)CNC(=O)[C@H](CC(C)C)NC(=O)CNC(=O)[C@H](CO)NC(=O)[C@H](CC(C)C)NC(=O)[C@H](CO)NC(=O)CNC1=O", "note": "[compound 1354] ({C18 diacid-γGlu-γGlu-AEEA-AEEA}-ARKYHGAQKTGVSSGCFGLPLDRIGSLSGLGC-OH; disulfide 16-32)", "solubility": 440},
      {"smiles": "CC[C@H](C)[C@@H]1NC(=O)[C@H](CCCNC(=N)N)NC(=O)[C@H](CC(=O)O)NC(=O)[C@H](CC(C)C)NC(=O)[C@@H]2CCCN2C(=O)[C@H](CC(C)C)NC(=O)CNC(=O)[C@H](Cc2ccccc2)NC(=O)[C@@H](NC(=O)CNC(=O)[C@H](CO)NC(=O)[C@H](CO)NC(=O)[C@H](CC(C)C)NC(=O)CNC(=O)[C@H](CCCCN)NC(=O)[C@H](CCCCN)NC(=O)[C@H](CCC(N)=O)NC(=O)[C@H](C)NC(=O)CNC(=O)[C@H](CCC(=O)O)NC(=O)[C@H](Cc2ccc(O)cc2)NC(=O)[C@H](CO)NC(=O)[C@H](CCCNC(=N)N)NC(=O)[C@H](C)NC(=O)[C@H](CCC(N)=O)NC(=O)[C@@H]2CCCN2C(=O)[C@H](Cc2c[nH]cn2)NC(=O)[C@H](CCC(=O)O)NC(=O)[C@H](CCC(N)=O)NC(=O)COCCOCCNC(=O)COCCOCCNC(=O)CC[C@H](NC(=O)CCCCCCCCCCCCCCCCC(=O)O)C(=O)O)CSSC[C@@H](C(=O)O)NC(=O)CNC(=O)[C@H](CC(C)C)NC(=O)CNC(=O)[C@H](CO)NC(=O)[C@H](CC(C)C)NC(=O)[C@H](CO)NC(=O)CNC1=O", "note": "[compound 1379] ({C18 diacid-γGlu-AEEA-AEEA}-QEHPQARSYEGAQKKGLSSGCFGLPLDRIGSLSGLGC-OH; disulfide 21-37; C-terminus assumed)", "solubility": 2670},
      {"smiles": "CC[C@H](C)[C@@H]1NC(=O)[C@H](CCCNC(=N)N)NC(=O)[C@H](CC(=O)O)NC(=O)[C@H](CC(C)C)NC(=O)[C@@H]2CCCN2C(=O)[C@H](CC(C)C)NC(=O)CNC(=O)[C@H](Cc2ccccc2)NC(=O)[C@@H](NC(=O)CNC(=O)[C@H](CO)NC(=O)[C@H](CO)NC(=O)[C@H](CC(C)C)NC(=O)CNC(=O)[C@H](CCCCN)NC(=O)[C@H](CCCCN)NC(=O)[C@H](CCC(N)=O)NC(=O)[C@H](C)NC(=O)CNC(=O)[C@H](CCCCN)NC(=O)[C@H](Cc2ccc(O)cc2)NC(=O)[C@H](CCCCN)NC(=O)[C@H](CCCNC(=N)N)NC(=O)[C@H](C)NC(=O)CC[C@H](NC(=O)CC[C@H](NC(=O)CC[C@H](NC(=O)CC[C@H](NC(=O)CCCCCCCCCCCCCCCCC(=O)O)C(=O)O)C(=O)O)C(=O)O)C(=O)O)CSSC[C@@H](C(=O)O)NC(=O)CNC(=O)[C@H](CC(C)C)NC(=O)CNC(=O)[C@H](CO)NC(=O)[C@H](CC(C)C)NC(=O)[C@H](CO)NC(=O)CNC1=O", "note": "[compound 1386] ({C18 diacid-γGlu-γGlu-γGlu-γGlu}-ARKYKGAQKKGLSSGCFGLPLDRIGSLSGLGC-OH; disulfide 16-32)", "solubility": 490}
    ]}
  ]
}
